Assay results from patent US7528141B2, “Use of cyclopenta[g]quinazoline derivatives for treating cancer” (BTG International Limited, priority 2001, dated 2009).
“And” between values parts separate entries of the source, which are not always exact repeats. Equal values may be shown once. Read-outs that look alike come from different tables or passages of the source.

Legend:
[1] = molecular target: T1, α-FR (Homo sapiens, UniProt P15328); assay: Binding to α-FR relative to folic acid, A431-FBP cells; details: human A431 cells transfected with α-FR; folic acid = 1
T1 construct: expressed in transfected cells; host or cells: A431 (human vulvar carcinoma)

[2] = molecular target: T2, reduced-folate carrier (RFC) (Mus musculus, UniProt P41438); assay: Inhibition of 3H MTX uptake in L1210 cells; type: cell-based; details: Inhibition of 3H MTX uptake Ki, L1210, mouse L1210 tumor cells; high Ki = low affinity for RFC
T2 construct: endogenous in cells; host or cells: L1210
T2 sequence (P41438 1-512): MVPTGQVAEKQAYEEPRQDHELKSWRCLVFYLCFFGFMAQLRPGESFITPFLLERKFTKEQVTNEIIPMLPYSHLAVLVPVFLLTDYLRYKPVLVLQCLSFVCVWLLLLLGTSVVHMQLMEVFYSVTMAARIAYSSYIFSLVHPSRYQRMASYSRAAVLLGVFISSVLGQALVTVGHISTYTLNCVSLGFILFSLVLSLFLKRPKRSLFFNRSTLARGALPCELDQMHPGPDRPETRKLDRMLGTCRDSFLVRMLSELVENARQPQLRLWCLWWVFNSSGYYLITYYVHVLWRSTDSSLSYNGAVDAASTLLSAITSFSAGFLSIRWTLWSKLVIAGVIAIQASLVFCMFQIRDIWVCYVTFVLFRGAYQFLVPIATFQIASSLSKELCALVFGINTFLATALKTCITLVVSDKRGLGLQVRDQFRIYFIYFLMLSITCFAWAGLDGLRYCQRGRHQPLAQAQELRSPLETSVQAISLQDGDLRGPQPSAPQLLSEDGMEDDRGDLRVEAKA

[3] = tested on: KB cells; assay: Inhibition of cell growth, KB cells; details: for fold increased IC50 in presence of folic acid, KB: IC50 + 1 μM FA vs without FA;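 on all read-outs here: KB nasopharyngeal carcinoma cells express the α-folate receptor, and leucovorin at 20 nM was the folate source in the growth medium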
[4] = tested on: A431 cells; assay: Inhibition of cell growth, A431 cells; details: for fold increased IC50 in presence of folic acid, A431: IC50 + 1 μM FA vs without FA
[5] = molecular target: T3, reduced-folate carrier (RFC) (Homo sapiens, UniProt P41440); assay: Inhibition of 3H MTX uptake in W1L2 cells; type: cell-based; details: Inhibition of 3H MTX uptake Ki, W1L2, human lymphoblastoid W1L2 cells; high Ki = low affinity for RFC
T3 construct: endogenous in cells; host or cells: W1L2
T3 sequence (P41440 1-591): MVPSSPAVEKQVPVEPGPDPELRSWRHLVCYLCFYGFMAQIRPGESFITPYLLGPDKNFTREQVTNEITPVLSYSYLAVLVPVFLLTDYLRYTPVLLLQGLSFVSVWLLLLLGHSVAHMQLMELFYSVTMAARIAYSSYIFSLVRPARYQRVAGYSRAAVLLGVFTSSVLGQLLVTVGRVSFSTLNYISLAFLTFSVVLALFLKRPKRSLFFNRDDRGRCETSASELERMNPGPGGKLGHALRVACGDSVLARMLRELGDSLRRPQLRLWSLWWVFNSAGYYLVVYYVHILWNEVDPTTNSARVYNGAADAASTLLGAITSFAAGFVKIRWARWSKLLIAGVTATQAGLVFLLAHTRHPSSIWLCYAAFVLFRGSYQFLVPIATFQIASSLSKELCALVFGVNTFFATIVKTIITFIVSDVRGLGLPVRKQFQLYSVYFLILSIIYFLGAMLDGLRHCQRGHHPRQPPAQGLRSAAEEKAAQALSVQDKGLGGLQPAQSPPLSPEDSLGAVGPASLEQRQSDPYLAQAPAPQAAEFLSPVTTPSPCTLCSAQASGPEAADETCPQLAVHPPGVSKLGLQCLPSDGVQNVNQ

[6] = molecular target: T4, α-FR (Mus musculus, UniProt P35846); assay: Binding to α-FR relative to folic acid, L1210-FBP cells; details: L1210-FBP mouse tumor cells overexpressing α-FR; folic acid = 1
T4 construct: endogenous in cells; host or cells: mouse L1210-FBP cells

[7] = molecular target: T5, thymidylate synthase (TS) from L1210 mouse leukaemia cells (Mus musculus, UniProt P07607); assay: Inhibition of isolated L1210 thymidylate synthase; type: biochemical
T5 construct: obtained in partially purified form from L1210 mouse leukaemia cells; endogenous in cells; host or cells: L1210 mouse leukaemia cells (enzyme partially purified)

[8] = tested on: A431-FBP cells; assay: Inhibition of cell growth, A431-FBP cells; details: for fold increased sensitivity compared with A431, A431-FBP: A431 IC50 vs A431-FBP IC50; for fold increased IC50 in presence of folic acid, A431-FBP: IC50 + 1 μM FA vs without FA
[9] = Homo sapiens, KB, read-out: Inhibition of cell growth, IC50, KB, 20 nM LV
[10] = Homo sapiens, A-431, read-out: Inhibition of cell growth, IC50, A431
[11] = Inhibition of isolated L1210 TS, Kiapp
[12] = Homo sapiens, read-out: Inhibition of cell growth, IC50, A431-FBP
[13] = read-out: Inhibition of cell growth, IC50, A431-FBP + 1 μM FA, 20 nM LV, + 1 μM folic acid
[14] = read-out: Inhibition of cell growth, IC50, KB + 1 μM FA, 20 nM LV, + 1 μM folic acid
[15] = read-out: Inhibition of cell growth, IC50, A431 + 1 μM FA, 20 nM LV, + 1 μM folic acid
[16] = read-out: Inhibition of isolated L1210 TS, Kiapp

T1 sequence (P15328 25-234): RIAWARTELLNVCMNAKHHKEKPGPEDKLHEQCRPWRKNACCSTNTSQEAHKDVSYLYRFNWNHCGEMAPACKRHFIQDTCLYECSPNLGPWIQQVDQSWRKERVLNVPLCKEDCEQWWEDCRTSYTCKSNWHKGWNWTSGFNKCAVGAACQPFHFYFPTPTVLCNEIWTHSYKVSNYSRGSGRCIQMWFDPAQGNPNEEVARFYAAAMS
T5 sequence (P07607 whole entry): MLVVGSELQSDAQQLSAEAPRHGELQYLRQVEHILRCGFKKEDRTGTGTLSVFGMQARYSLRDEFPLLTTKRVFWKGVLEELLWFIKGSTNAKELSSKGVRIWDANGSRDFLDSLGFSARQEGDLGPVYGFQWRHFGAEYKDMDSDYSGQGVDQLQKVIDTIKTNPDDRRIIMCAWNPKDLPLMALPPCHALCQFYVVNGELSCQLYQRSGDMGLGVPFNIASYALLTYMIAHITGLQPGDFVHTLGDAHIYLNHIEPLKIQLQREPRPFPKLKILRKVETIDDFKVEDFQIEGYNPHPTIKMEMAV
T4 sequence (P35846 25-232): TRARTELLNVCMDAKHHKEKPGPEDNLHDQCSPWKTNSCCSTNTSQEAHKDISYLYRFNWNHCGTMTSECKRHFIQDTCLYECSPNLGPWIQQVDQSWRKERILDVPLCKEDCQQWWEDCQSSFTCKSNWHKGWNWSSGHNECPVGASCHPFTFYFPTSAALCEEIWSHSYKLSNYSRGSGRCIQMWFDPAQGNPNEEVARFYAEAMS

SMILES | Inverse relative affinity for α-FR, A431-FBP [1] | Ki [2] | fold increased IC50 in presence of folic acid, KB ([3]; 20 nM LV) | IC50 [3, 9] [nM] | fold increased IC50 in presence of folic acid, A431 ([4]; 20 nM LV) | IC50 [4, 10] [nM] | Ki [5] | Inverse relative affinity for α-FR, L1210-FBP [6] | Ki [7, 11] | fold increased sensitivity compared with A431, A431-FBP ([8]; 20 nM LV) | fold increased IC50 in presence of folic acid, A431-FBP ([8]; 20 nM LV) | IC50 [8, 12] [nM] | IC50 [8, 13] [nM] | IC50 [3, 14] [nM] | IC50 [4, 15] [nM] | Ki [7, 16] | IC50 ([3]; read-out: Inhibition of cell growth, IC50, KB, 20 nM LV) [nM]
C#CCN(c1ccc(C(=O)N[C@@H](CCC(=O)N[C@H](CCC(=O)O)C(=O)O)C(=O)O)cc1)C1CCc2cc3nc(CO)[nH]c(=O)c3cc21 (mixture of isomers) [CB300945 (R, S)] | 0.67 ± 0.11 | > 250000 nM | (2100) fold | 3.4 ± 0.9 | (1) fold | 9800 ± 3400 | > 250000 nM | 0.73 ± 0.06 | 2.6 nM and 3.3 nM | (4700) fold | (3100) fold | 2.1 ± 1.1 | 6500 ± 860 |  |  |  | 
C#CCN(c1ccc(C(=O)N[C@@H](CCC(=O)N[C@H](CCC(=O)O)c2nnn[nH]2)C(=O)O)cc1)[C@H]1CCc2cc3nc(C)[nH]c(=O)c3cc21 [CB300907 (S)] | 0.58 ± 0.032 | 186000 ± 121000 nM | (79) fold | 6.2 ± 3 | (1) fold | 1400 ± 820 | 142000 ± 54000 nM | 0.61 ± 0.07 |  | (540) fold | (170) fold | 2.6 ± 1.8 | 430 ± 180 | 490 ± 140 | 1600 ± 1100 | 0.16 nM and 0.17 nM | 
C#CCN(Cc1cc2c(=O)[nH]c(C)nc2cc1C)c1ccc(C(=O)N[C@@H](CCC(=O)O)C(=O)O)cc1 [CB3900, reference compound] |  | 4300 nM and 4700 nM | (2) fold | 130 ± 6 | (1) fold | 2200 ± 260 | 1300 nM | 0.30 ± 0.07 |  | (2) fold | (1) fold | 1400 ± 360 | 1500 ± 290 | 310 ± 40 | 2600 ± 920 | 23 nM | 
C#CCN(c1ccc(C(=O)N[C@@H](CCC(=O)O)C(=O)O)cc1)C1CCc2cc3nc(CO)[nH]c(=O)c3cc21 (stereo partly drawn) [CB300959 (R, S), reference compound] | 0.57 ± 0.032 |  | (11) fold | 420 | (1) fold | 4200 |  | 0.71 ± 0.012 |  | (0.5) fold | (2) fold | 8800 | 18000 |  | 5800 | 12 nM | 500
C#CCN(Cc1ccc2nc(C)[nH]c(=O)c2c1)c1ccc(C(=O)N[C@@H](CCC(=O)O)C(=O)O)cc1 [ICI 198583, reference compound] |  | 2600 ± 60 nM |  | 2 ± 0.4 |  | 24 ± 4 | 1200 nM and 1000 nM |  |  |  |  | 12 ± 5 | 20 ± 4.6 | 20 ± 2 | 26 ± 3.8 |  | 
C#CCN(c1ccc(C(=O)N[C@@H](CCC(=O)N[C@H](CCC(=O)O)C(=O)O)C(=O)O)cc1)[C@H]1CCc2cc3nc(CO)[nH]c(=O)c3cc21 [CB300945 (S)] | 0.69 ± 0.05 |  | (1800) fold | 2.7 ± 1.5 | (1) fold | 7000 |  | 0.70 ± 0.015 | 1.9 nM | (4700) fold | (4300) fold | 1.5 | 6400 | 4800 ± 750 | 6500 |  | 
C#CCN(c1ccc(C(=O)N[C@@H](CCC(=O)N(C)[C@@H](CCC(=O)O)C(=O)O)C(=O)O)cc1)C1CCc2cc3nc(CO)[nH]c(=O)c3cc21 (mixture of isomers) [CB300960 (R, S), N-{N-{4-[N-((6RS)-2-hydroxymethyl-4-oxo-3,4,7,8-tetrahydro-6H-cyclopenta[g]quinazolin-6-yl)-N-(prop-2-ynyl)amino]benzoyl}-L-γ-glutamyl}-N-methyl-L-glutamic acid] |  |  |  |  | (1) fold | 4500 |  |  |  |  | (180) fold | 28 |  |  |  |  | 
C#CCN(Cc1ccc2nc(N)[nH]c(=O)c2c1)c1ccc(C(=O)N[C@@H](CCC(=O)O)C(=O)O)cc1 [CB3717, reference compound] |  | 46000 ± 17000 nM |  |  |  | 1200 ± 630 |  |  |  |  |  | 260 ± 120 | 450 ± 140 |  | 1400 ± 560 |  | 
Cc1nc2ccc(CN(C)c3ccc(C(=O)N[C@@H](CCC(=O)O)C(=O)O)s3)cc2c(=O)[nH]1 [Raltitrexed, reference compound] |  | 2600 nM and 2300 nM |  | 1.1 ± 0.71 |  | 3.4 ± 1.6 |  |  |  |  |  | 0.79 ± 0.36 | 1.3 ± 0.7 | 1.2 ± 0.59 | 3.6 ± 1.6 | 510 nM | 
